Measurements from patent EP1859794A1, “Sustained release supplements” (priority 2006, dated 2007).

How the values were obtained:
[1] = Digestion simulation in stomacher at pH 3 for 60 minutes, total creatine and creatinine levels; type: physicochemical
Procedure: 1 capsule of creatine (500 mg) and 500 mg of powder was used along with 1 tablet of 500 mg of Sustained Released Creatine.
All 3 products were placed in a stomacher at pH 3 for 60 minutes to simulate digestion. Stomacher contained 1 liter of fluid with pH being adjusted with hydrochloric acid to simulate digestion.
After 60 minutes of digestion simulation in stomacher, all 3 products were tested for: • Total Creatine levels • Total Creatinine levels

[2] = Stamina and strength of athletes taking creatine (free weights and hammer strength machines); type: in vivo, human; conditions: two subjects
Procedure: Week 1-4: Two subjects were administered creatine monohydrate in powder form for four weeks. 2 grams were taken in the A.M. before breakfast.
No changes were made to diet and athletes were working out 4 times per week.
Stamina & Strength levels were monitored at the beginning of the study and every workout for 4 weeks.
A combination of free weights and hammer strength machines were used.
Week 5-8. Athletes discontinued creatine use. After 1 week the stomach bloat, bloating of the ankles and wrist, along with diarrhea and loose stools disappeared. About a 1% increase in strength was again noticed by the end of week 8, due to old fashioned hard work.
Week 9-12. Athletes were administered one 750 mg sustained released tablet in the a.m. and one 750 mg tablet in the afternoon. The breakdown of these tablets were 9 hours.

[3] = FTNIR / HPLC analysis of creatine and creatinine, as is or dry basis; type: physicochemical; conditions: before digestion simulation
Procedure: Tests on the coated Tablet prepared as described in Example 2 but with addition of 6% by tablet weight of PV/AP, creatine monohydrate powder and capsules of creatine monohydrate were carried out
These tests were done on an "AS IS or DRY BASIS.
Identification performed by FINIR, against in-house external library standards obtained from Sigma & produced by HPLC. / Quantification by FTNIR against external library standards obtained from Sigma & produced by HPLC
Bran & Luebbe InfraProver II FTNIR
Analysis performed by HPLC using Intersil ODS-2 5um (250x4.dmm) and 25 min. gradient elution with 0.1% phosphoric acid buffer in H2O and 0.1% phosphoric acid in acetonitrile. External reference standards obtained from Sigma-Aldrich.

[4] = physchem; type: physicochemical; conditions: simulated gastric solution, pH 4
Procedure: TABLE 2 Change in creatine with time at pH 4
The determination was based upon formation of creatinine under buffered incubation conditions. A solution of 1% creatine in simulated gastric solution (0.5% betain/pepsin in 1M HEPES buffer pH controlled with 5M HC1 and 5N NaOH). Creatinine determination performed by PDA spectrophotometer in kinetic mode, scanning at 15 sec intervals with an integration time of 0.5 sec. Detection in 1 cm path length flow call at 37°C with test analyte flowing at 1 ml/min. Reagents obtained from Sigma-Aldrich.

[5] = 2 grams in the A.M. before breakfast, week 1-4

CN(CC(=O)O)C(=N)N.O [Creatine Powder, creatine monohydrate]
pH of Stomacher after addition of product ([1]; 500 mg elemental creatine added to stomacher at pH 3, 1 liter of fluid): 3.5 | creatine converted to creatinine after 60 minutes (in words) ([1]; 500 mg, stomacher at pH 3, 60 minutes): all creatine being converted to creatinine | degraded at 1 h ([1]; acidified fluid, 500 mg elemental creatine, stomacher at pH 3, 60 minutes, read-out: Total conversion to Creatinine after 60 minutes of digestion): 100% | side effects [2, 5]: Stomach bloating, bloating of the ankles and wrist, along with diarrhea and loose stools | stamina increase [2, 5]: did not notice any stamina increase | increase in strength ([2]; 2 grams in the A.M. before breakfast, week 1-4, not attributed to creatine): ~1% | over all sense of tiredness ([2]; 2 grams in the A.M., week two through week four): set in after week two and lasted through week four | Creatine [3]: Creatine 100.1% | Creatinine [3]: Creatinine <200ppm

CN(CC(=O)O)C(=N)N [creatine]
remaining at 15 s [4]: 94% | remaining at 0.5 min [4]: 86% | remaining at 45 s [4]: 75% | remaining at 1 min [4]: 66% | remaining at 75 s [4]: 57% | remaining at 0.025 h [4]: 49% | remaining at 105 s [4]: 38% | remaining at 2 min [4]: 31% | remaining at 135 s [4]: 21% | remaining at 2.5 min [4]: 16% | remaining at 165 s [4]: 6% | remaining at 0.05 h [4]: 0.5%
